In data set [1] the target is T1, catalytic domain of MMP-13 (Homo sapiens, UniProt P45452).
T1 construct: The catalytic domains of MMP-2, MMP-8 and MMP-13 were purchased from Enzo Life Sciences; purchased Enzo Life Sciences (Lörrach, Germany)
Description: MMP-13 enzyme inhibition assay (fluorogenic substrate). The class given is biochemical. To be noted: mean ± SEM of at least three independent measurements in triplicate. On the procedure:
(§1) The synthesized compounds were submitted to MMP inhibition assays. A dose/response preliminary screening was performed at 100 µM by registering the residual enzyme activity on MMP-2, MMP-8 and MMP-13 (Figure 4). Compounds showing a percentage of inhibition higher than 50% were submitted to IC50 calculation.
(§2) The catalytic domains of MMP-2, MMP-8 and MMP-13 were purchased from Enzo Life Sciences (Lörrach, Germany). The assays were performed in triplicate in 96-well white microtiter plates (Corning, NBS; Corning, NY, USA). For assay measurements, inhibitor stock solutions (DMSO, 10 mM) were diluted to six different concentrations (1 nM–100 µM) in fluorometric assay buffer (50 mM Tris·HCl pH 7.5, 200 mM NaCl, 1 mM CaCl2, 1 µM ZnCl2, 0.05% Brij-35 and 1% DMSO). Enzyme and inhibitor solutions were incubated in the assay buffer for 15 min at room temperature before the addition of the fluorogenic substrate solution (OmniMMP® = Mca-Pro-Leu-Gly-Leu-Dpa-Ala-Arg-NH2, Enzo Life Sciences, 2.5 µM final concentration or OmniMMP®RED = TQ3-GABA-Pro-Cha-Abu-Smc-His-Ala-Dab(6’-TAMRA)-Ala-Lys-NH2, (TAMRA: tetramethylrhodamine) Enzo Life Sciences, 1 µM final concentration). After further incubation for 2–4 h at 37 °C, fluorescence was measured (λex = 340 nm, λem = 405 nm or λex = 545 nm, λem = 572 nm) using a Perkin-Elmer Victor V3 plate reader (Waltham, MA, USA). Control wells lacked inhibitor. The MMP inhibition activity was expressed in relative fluorescence units (RFU). Percent inhibition was calculated from control reactions without inhibitor; IC50 values were determined using GraphPad Prism version 5.0f and are expressed as the mean ± SEM of at least three independent measurements in triplicate.

The target in data set [2] is T2, catalytic domain of MMP-2 (Homo sapiens, UniProt P08253).
T2 construct: The catalytic domains of MMP-2, MMP-8 and MMP-13 were purchased from Enzo Life Sciences; purchased Enzo Life Sciences (Lörrach, Germany)
Description: MMP-2 enzyme inhibition assay (fluorogenic substrate). To be noted: for IC50: mean ± SEM of at least three independent measurements in triplicate. The class given is biochemical. On the procedure:
as §1, §2

Data set [3] addresses T3, catalytic domain of MMP-8 (Homo sapiens, UniProt P22894).
T3 construct: The catalytic domains of MMP-2, MMP-8 and MMP-13 were purchased from Enzo Life Sciences; purchased Enzo Life Sciences (Lörrach, Germany)
Description: MMP-8 enzyme inhibition assay (fluorogenic substrate). The data set is classed as biochemical. To be noted: mean ± SEM of at least three independent measurements in triplicate. On the procedure: as §1, §2

The subject of data set [4] is MMP-8. Set-up: method as in PMID 23873724. To be noted: previous work, virtual screening hits; cited from earlier work.
Data set [5] relates to MMP-2. Set-up: method as in PMID 23873724. To be noted: previous work, virtual screening hits; cited from earlier work.
The subject of data set [6] is MMP-13. Set-up: method as in PMID 23873724. To be noted: previous work, virtual screening hits; cited from earlier work.

Broadly, the melting point is the temperature of the solid-liquid transition. In general, IC50 refers to the concentration at which inhibition is half-maximal.

T3 sequence (P22894 100-262 limits assumed): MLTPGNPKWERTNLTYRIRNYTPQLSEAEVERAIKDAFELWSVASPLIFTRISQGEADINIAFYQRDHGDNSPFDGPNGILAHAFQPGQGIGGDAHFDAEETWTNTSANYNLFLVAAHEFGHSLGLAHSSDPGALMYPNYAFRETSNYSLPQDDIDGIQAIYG
T2 sequence (P08253 110-446 limits assumed): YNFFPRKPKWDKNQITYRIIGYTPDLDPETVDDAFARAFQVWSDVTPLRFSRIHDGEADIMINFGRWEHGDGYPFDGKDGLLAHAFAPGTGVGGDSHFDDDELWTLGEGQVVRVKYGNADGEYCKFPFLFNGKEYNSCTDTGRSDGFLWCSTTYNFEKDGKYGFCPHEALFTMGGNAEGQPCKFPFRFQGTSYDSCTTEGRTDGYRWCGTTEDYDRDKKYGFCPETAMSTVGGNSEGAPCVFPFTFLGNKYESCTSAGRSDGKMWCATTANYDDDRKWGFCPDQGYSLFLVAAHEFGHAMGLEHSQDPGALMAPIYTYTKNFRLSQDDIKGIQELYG

As to `O=C(CCc1ccccc1)Nc1cccc2cnccc12` [Compound 2b], the melting point fell in the range of 133 to 135 °C.

Consider `O=C(NCc1ccccc1)Nc1nccc2ccccc12` [Compound 1e], for which the melting point was in the range of 164 to 165 °C.

For `O=C(NCc1ccccc1)Nc1cccc2ncccc12` [Compound 1c], the melting point is 251 °C (dec.). Besides, the IC50 in data set [1] turned out to be 58 ± 1 µM. The compound also had an IC50 in data set [2] of 55 ± 1 µM. For the same compound, the IC50 in data set [3] is more than 100 µM.

`O=C(NCc1ccc(NC(=O)c2ccccc2)cc1)Nc1cccc2cnccc12` [Compound 7]: the melting point lay in the range of 200 to 202 °C. The compound also registered an IC50 in data set [1] of 6.6 ± 0.4 µM. Further, half-maximal inhibition in data set [2] (IC50) was put at 7.4 ± 0.8 µM. Further, in data set [3], the IC50 came to 48.5 ± 1.6 µM.

For `CC(NC(=O)NCc1ccccc1)c1ccccc1` (stereo not drawn) [Compound 1w], the melting point was 116 to 118 °C.

Consider `O=C(NCc1ccccc1)Nc1ccc2[nH]ncc2c1` [Compound 1l], for which the concentration for half-maximal inhibition (IC50) in data set [1] is 98 ± 2 µM; in data set [2] it was 86 ± 2 µM; in data set [3], more than 100 µM.

`O=S(=O)(Nc1ccc2cnccc2c1)c1ccccc1` [Compound 2e] gave a melting point of 228 to 230 °C.

On to `O=C(NCc1ccccc1)Nc1ccc2[nH]ccc2c1` [Compound 1j], for which the melting point was in the range of 197 to 198 °C.

Turning to `O=C(NCc1ccccc1)Nc1cccc2ccccc12` [Compound 1n], the melting point fell in the range of 196 to 197 °C.

`COc1cccc(CNC(=O)NCc2ccccc2)c1OC` [Compound 1t] came in with a melting point of 149 °C.

With `O=C(NCc1ccco1)Nc1c[nH]c2cccnc2c1=O` [Hit 1], the concentration for half-maximal inhibition (IC50) in data set [4] was 75 µM; in data set [5], 5 µM; in data set [6], 36 µM.

`O=C(NCc1ccccc1)Nc1ccccn1` [Compound 1p]: the melting point lay within 148 to 150 °C.

For `O=C(Cc1ccccc1)Nc1cccc2cnccc12` [Compound 2a], the melting point lay in the range of 186 to 188 °C.

`O=C(NCc1ccccc1)Nc1cccc2ccncc12` [Compound 1i] displayed a melting point of 206 to 208 °C. Besides, in data set [2] (preliminary screening at 100 µM, isoform not given, MMP-2), the “MMP inhibition activity (in words)” value was “inactive”.

With `O=C(NCc1ccccc1)Nc1cccc2cnccc12` [Compound 1h], the melting point lay within 248 to 249 °C. In addition, in data set [1], half-maximal inhibition (IC50) required 14 ± 4 µM. Also, in data set [2], the 50% inhibitory concentration (IC50) turned out to be 15 ± 4 µM. In data set [3], this compound yielded an IC50 of more than 100 µM.

For the compound `O=C(NCc1ccccc1)Nc1cccnc1` [Compound 1q], the melting point lay within 154 to 156 °C.

In the case of `O=C(NCc1ccccc1)Nc1ccc2ccccc2c1` [Compound 1o], the melting point lay in the range of 208 to 210 °C.

In the case of `O=C(NCc1ccccc1)Nc1ccc2cn[nH]c2c1` [Compound 1m], the melting point was in the range of 198 to 199 °C.

With `O=C(NCc1ccccc1)c1cccc2cnccc12` [Compound 2c], the melting point was 182 to 183 °C.

`O=C(NCc1ccccc1)Nc1ccc(O)cc1` [Compound 1s] gave a melting point of 177 to 179 °C.

With `O=C(NCc1ccccc1)Nc1ccnc2ccccc12` [Compound 1b], the melting point was 167 to 169 °C.

Take `O=C(NCc1ccccc1)Nc1cncc2ccccc12` [Compound 1g]: the melting point lay in the range of 235 to 237 °C. In addition, inhibition in data set [1] was half-maximal at 73 ± 11 µM (IC50). For the same compound, it took 74 ± 3 µM to reach half-maximal inhibition in data set [2] (IC50). Further, in data set [3], the IC50 is more than 100 µM.

For the compound `O=C(NCc1ccco1)Nc1c[nH]c2ccc(F)cc2c1=O` [Hit 2], the results for the IC50 in data set [4], in data set [5] and in data set [6] were 105 µM, 15 µM and 5 µM, respectively.

On to `O=C(NCc1ccccc1)Nc1cc2ccccc2cn1` [Compound 1f], for which the melting point is 168 to 170 °C.

`COc1ccc(CNC(=O)NCc2ccccc2)cc1OC` [Compound 1u] gave a melting point of 127 °C.

Take `O=C(NCc1ccc(NS(=O)(=O)c2ccccc2)cc1)Nc1cccc2cnccc12` [Compound 5]: the melting point lay within 117 to 119 °C. In addition, the IC50 in data set [1] was 55 ± 7 µM. For the same compound, the IC50 in data set [2] amounted to 54 ± 7 µM. The midpoint of inhibition in data set [3], the IC50, lay at 88 ± 5 µM.

For `O=C(NCCc1ccccc1)c1cccc2cnccc12` [Compound 2d], the melting point lay within 120 to 121 °C.

For `O=C(NCc1ccccc1)NN1CCCC1` [Compound 1z], the melting point fell in the range of 124 to 126 °C.

Compound `O=C(NCc1ccccc1)Nc1ccc2cc[nH]c2c1` [Compound 1k] had a melting point of 211 to 213 °C.

The values are drawn from publication PMC5085792, “Seeking for Non-Zinc-Binding MMP-2 Inhibitors: Synthesis, Biological Evaluation and Molecular Modelling Studies” (International Journal of Molecular Sciences, 2016).
